According to ChEMBL document CHEMBL4765298, “Substituted oxindol-3-ylidenes as AMP-activated protein kinase (AMPK) inhibitors” (Eur J Med Chem, 2020):
Values belong to the compound of their own block, whether it stands above or below them. Active and inactive are the calls of the source. No cut-off for these calls is given here.

Legend:
[1] = target: 5'-AMP-activated protein kinase catalytic subunit alpha-2 (Homo sapiens) (UniProt P54646); assay: Inhibition of recombinant human His6-tagged AMPK alpha2 at 10 uM using ULight CRBtide as substrate incubated for 1 hr followed by substrate addition and measured after 1 hr by TR-FRET assay relative to control; details: time 2.0 hrs
[2] = target: 5'-AMP-activated protein kinase catalytic subunit alpha-1 (Homo sapiens) (UniProt Q13131); assay: Inhibition of recombinant human His6-tagged AMPK alpha1 at 20 uM using ULight CRBtide as substrate incubated for 1 hr followed by substrate addition and measured after 1 hr by TR-FRET assay relative to control; details: time 2.0 hrs
[3] = target: 5'-AMP-activated protein kinase catalytic subunit alpha-1 (Homo sapiens) (UniProt Q13131); assay: Inhibition of wild-type human partial length AMPK alpha1 (M1 to E306 residues) expressed in bacterial expression system at 100 nM by Kinomescan method relative to control
[4] = target: 5'-AMP-activated protein kinase catalytic subunit alpha-2 (Homo sapiens) (UniProt P54646); assay: Inhibition of wild-type human partial length AMPK alpha2 (M1 to E306 residues) expressed in bacterial expression system at 100 nM by Kinomescan method relative to control
[5] = target: Tyrosine-protein kinase BTK (Homo sapiens) (UniProt Q06187); assay: Inhibition of wild-type human full length BTK (M1 to S659 residues) expressed in mammalian expression system at 100 nM by Kinomescan method relative to control
[6] = target: Vascular endothelial growth factor receptor 2 (Homo sapiens) (UniProt P35968); details: dose 100.0 nM
Description: Inhibition of wild-type human partial length VEGFR2 (R787 to P1253 residues) expressed in mammalian expression system at 100 nM by Kinomescan method relative to control

[7] = target: Mast/stem cell growth factor receptor Kit (Homo sapiens) (UniProt P10721); assay: Inhibition of wild-type human partial length autoinhibited KIT (Y545 to D952 residues) expressed in mammalian expression system at 100 nM by Kinomescan method relative to control
[8] = target: Macrophage colony-stimulating factor 1 receptor (Homo sapiens) (UniProt P07333); assay: Inhibition of wild-type human partial length autoinhibited CSF1R (Y538 to S939 residues) expressed in mammalian expression system at 100 nM by Kinomescan method relative to control
[9] = target: Macrophage colony-stimulating factor 1 receptor (Homo sapiens) (UniProt P07333); assay: Inhibition of wild-type human partial length CSF1R (I564 to S939 residues) expressed in bacterial expression system at 100 nM by Kinomescan method relative to control
[10] = target: Tyrosine-protein kinase JAK1 (Homo sapiens) (UniProt P23458); assay: Inhibition of wild-type human partial length JAK1 JH2 pseudokinase domain (R537 to D855 residues) expressed in mammalian expression system at 100 nM by Kinomescan method relative to control
[11] = tested on: K562; assay: Inhibition of AMPK in human K562 cells assessed as p-ACC (Ser79) level at 5 uM in glucose free medium and in presence of 2-Deoxy-D-glucose measured after 3 hrs by ELISA relative to control; assay type: cell-based
[12] = tested on: K562; assay: Inhibition of AMPK in human K562 cells assessed as p-ACC (Ser79) level at 3.125 to […] in glucose free medium and in presence of 2-Deoxy-D-glucose measured after 3 hrs by ELISA; assay type: cell-based; details: dose 3.125-12.5 µM
[13] = tested on: K562; assay: Cytotoxicity against human K562 cells assessed as reduction in cell viability incubated for 24 hrs by cell-titer glo assay; assay type: cell-based; details: K562, 24 h
[14] = Cytotoxicity against human K562 cells assessed as reduction in cell viability at 50 uM incubated for 24 hrs by celltox-green assay relative to control; assay type: cell-based; details: read-out: INH
[15] = tested on: K562; assay: Cytotoxicity against human K562 cells assessed as reduction in cell viability incubated for 72 hrs by MTS assay; assay type: cell-based; details: K562, 72 h
[16] = tested on: K562; assay: Cytotoxicity against human K562 cells assessed as reduction in cell viability incubated for 48 hrs by celltox-green assay; assay type: cell-based; details: K562, 48 h
[17] = Inhibition of recombinant human GST-tagged AMPK alpha1/beta1/gamma1 expressed in African green monkey COS7 cells assessed as reduction in AMPK beta 1 S108 phosphorylation incubated for 10 mins by [gamma 32-P]-ATP based radiometric scintillation counting analysis; assay type: cell-based
[18] = Cytotoxicity against human K562 cells assessed as reduction in cell viability at 50 uM incubated for 24 hrs by cell-titer glo assay relative to control; assay type: cell-based; details: read-out: INH
[19] = Cytotoxicity against human K562 cells assessed as reduction in cell viability at 50 uM incubated for 72 hrs by MTS assay relative to control; assay type: cell-based; details: read-out: INH
[20] = tested on: K562; assay: Cytotoxicity against human K562 cells assessed as reduction in cell viability incubated for 24 hrs by celltox-green assay; assay type: cell-based; details: K562, 24 h
[21] = Cytotoxicity against human K562 cells assessed as reduction in cell viability at 50 uM incubated for 48 hrs by celltox-green assay relative to control; assay type: cell-based; details: read-out: INH
[22] = Cytotoxicity against human K562 cells assessed as reduction in cell viability at 1.56 uM incubated for 72 hrs by MTS assay relative to control; assay type: cell-based; details: read-out: INH
[23] = tested on: K562; assay: Inhibition of AMPK in human K562 cells assessed as p-ACC (Ser79) level at 50 uM in glucose free medium and in presence of 2-Deoxy-D-glucose measured after 3 hrs by ELISA; assay type: cell-based
[24] = target: Vascular endothelial growth factor receptor 1 (Homo sapiens) (UniProt P17948); assay: Inhibition of wild-type human partial length FLT1 (R781 to F1239 residues) expressed in bacterial expression system at 100 nM by Kinomescan method relative to control

Chain of 5'-AMP-activated protein kinase catalytic subunit alpha-1 (Homo sapiens) (Q13131 whole entry, looked up, the tested form may be a part): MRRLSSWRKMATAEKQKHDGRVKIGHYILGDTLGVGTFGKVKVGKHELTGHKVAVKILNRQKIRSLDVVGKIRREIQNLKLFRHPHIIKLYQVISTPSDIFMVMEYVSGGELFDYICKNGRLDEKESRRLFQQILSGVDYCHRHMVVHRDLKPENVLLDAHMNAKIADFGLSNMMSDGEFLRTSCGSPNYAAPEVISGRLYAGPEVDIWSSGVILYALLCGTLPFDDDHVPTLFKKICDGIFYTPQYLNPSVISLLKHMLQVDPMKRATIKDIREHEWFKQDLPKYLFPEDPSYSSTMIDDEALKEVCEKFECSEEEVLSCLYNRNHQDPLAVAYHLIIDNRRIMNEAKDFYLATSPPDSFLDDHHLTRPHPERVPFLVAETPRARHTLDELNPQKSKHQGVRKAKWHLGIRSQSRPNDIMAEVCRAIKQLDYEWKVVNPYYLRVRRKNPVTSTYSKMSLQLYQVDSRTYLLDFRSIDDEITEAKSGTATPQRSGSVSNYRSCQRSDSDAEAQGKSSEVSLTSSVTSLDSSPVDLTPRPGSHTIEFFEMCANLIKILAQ
Chain of Macrophage colony-stimulating factor 1 receptor (Homo sapiens) (P07333 whole entry, the tested form may be a part): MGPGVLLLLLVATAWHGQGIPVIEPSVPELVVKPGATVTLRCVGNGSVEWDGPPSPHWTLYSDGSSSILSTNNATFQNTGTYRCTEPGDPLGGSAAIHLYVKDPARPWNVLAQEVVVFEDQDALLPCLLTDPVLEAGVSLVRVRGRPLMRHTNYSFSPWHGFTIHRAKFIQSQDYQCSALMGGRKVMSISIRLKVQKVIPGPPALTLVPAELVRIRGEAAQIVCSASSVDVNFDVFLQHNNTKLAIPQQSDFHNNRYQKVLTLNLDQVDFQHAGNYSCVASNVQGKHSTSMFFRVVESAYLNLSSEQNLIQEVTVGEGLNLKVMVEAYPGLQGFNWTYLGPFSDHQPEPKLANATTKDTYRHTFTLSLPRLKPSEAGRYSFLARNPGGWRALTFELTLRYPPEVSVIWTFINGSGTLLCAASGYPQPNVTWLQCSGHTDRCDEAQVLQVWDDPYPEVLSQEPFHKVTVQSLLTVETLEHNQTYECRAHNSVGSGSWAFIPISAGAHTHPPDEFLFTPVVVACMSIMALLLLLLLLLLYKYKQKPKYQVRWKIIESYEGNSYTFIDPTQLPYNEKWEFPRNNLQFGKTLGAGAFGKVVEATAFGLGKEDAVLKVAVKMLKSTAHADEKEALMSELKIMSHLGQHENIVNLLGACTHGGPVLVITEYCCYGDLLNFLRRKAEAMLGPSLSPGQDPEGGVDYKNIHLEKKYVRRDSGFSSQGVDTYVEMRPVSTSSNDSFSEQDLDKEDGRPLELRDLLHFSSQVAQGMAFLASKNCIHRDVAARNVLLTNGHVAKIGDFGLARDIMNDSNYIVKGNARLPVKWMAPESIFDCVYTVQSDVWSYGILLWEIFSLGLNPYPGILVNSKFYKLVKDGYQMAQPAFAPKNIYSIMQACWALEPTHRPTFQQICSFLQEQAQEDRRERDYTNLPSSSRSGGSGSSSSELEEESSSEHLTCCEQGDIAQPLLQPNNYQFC
Chain of 5'-AMP-activated protein kinase catalytic subunit alpha-2 (Homo sapiens) (P54646 whole entry, looked up, the tested form may be a part): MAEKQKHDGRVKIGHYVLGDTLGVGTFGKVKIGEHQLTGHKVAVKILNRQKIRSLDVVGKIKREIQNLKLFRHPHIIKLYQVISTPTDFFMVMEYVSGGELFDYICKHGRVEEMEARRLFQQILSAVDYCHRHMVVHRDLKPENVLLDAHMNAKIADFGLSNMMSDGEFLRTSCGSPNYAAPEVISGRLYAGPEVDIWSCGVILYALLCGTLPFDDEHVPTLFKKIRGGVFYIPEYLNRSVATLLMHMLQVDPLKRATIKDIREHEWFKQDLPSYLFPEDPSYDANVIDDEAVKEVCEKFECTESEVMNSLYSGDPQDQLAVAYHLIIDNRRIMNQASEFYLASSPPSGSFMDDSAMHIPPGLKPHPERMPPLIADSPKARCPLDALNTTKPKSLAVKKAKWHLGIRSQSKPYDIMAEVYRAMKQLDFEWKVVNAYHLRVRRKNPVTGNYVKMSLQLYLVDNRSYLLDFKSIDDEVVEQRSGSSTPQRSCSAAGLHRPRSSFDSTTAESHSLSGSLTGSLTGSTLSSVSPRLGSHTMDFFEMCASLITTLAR
Chain of Vascular endothelial growth factor receptor 2 (Homo sapiens) (P35968 whole entry, the tested form may be a part): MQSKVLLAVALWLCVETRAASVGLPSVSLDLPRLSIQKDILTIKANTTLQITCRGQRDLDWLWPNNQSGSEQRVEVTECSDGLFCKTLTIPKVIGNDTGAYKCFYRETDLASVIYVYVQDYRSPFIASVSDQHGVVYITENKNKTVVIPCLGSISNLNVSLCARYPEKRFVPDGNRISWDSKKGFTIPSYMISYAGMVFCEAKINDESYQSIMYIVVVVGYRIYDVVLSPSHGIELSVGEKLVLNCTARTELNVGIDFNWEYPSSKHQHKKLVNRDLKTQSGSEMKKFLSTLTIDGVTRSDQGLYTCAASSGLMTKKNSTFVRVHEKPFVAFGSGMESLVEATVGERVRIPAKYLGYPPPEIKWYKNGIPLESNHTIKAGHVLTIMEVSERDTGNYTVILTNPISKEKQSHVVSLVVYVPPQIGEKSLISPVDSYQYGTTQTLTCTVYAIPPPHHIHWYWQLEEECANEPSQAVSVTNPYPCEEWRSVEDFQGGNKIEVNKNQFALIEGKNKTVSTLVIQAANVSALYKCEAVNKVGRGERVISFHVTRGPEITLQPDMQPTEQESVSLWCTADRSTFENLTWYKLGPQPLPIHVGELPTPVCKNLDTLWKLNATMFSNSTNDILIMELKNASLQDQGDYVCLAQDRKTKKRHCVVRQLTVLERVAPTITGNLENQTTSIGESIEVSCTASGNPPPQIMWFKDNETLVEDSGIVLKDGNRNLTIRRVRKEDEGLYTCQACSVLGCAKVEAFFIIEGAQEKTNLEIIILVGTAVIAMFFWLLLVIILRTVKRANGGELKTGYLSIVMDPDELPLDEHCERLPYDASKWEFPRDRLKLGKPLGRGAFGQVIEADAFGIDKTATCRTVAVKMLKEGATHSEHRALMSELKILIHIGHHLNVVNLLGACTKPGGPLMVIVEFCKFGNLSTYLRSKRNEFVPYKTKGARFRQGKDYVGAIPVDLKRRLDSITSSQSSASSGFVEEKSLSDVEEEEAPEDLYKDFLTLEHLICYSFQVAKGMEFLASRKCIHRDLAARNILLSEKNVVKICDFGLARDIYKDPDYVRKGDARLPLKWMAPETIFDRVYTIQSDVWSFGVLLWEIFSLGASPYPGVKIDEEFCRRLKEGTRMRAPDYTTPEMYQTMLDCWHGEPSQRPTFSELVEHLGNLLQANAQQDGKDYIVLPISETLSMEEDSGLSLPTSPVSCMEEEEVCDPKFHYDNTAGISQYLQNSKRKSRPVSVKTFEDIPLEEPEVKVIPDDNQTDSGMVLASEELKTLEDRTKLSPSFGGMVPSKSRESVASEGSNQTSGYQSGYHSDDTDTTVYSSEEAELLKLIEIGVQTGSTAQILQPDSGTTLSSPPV
Chain of Mast/stem cell growth factor receptor Kit (Homo sapiens) (P10721 whole entry, the tested form may be a part): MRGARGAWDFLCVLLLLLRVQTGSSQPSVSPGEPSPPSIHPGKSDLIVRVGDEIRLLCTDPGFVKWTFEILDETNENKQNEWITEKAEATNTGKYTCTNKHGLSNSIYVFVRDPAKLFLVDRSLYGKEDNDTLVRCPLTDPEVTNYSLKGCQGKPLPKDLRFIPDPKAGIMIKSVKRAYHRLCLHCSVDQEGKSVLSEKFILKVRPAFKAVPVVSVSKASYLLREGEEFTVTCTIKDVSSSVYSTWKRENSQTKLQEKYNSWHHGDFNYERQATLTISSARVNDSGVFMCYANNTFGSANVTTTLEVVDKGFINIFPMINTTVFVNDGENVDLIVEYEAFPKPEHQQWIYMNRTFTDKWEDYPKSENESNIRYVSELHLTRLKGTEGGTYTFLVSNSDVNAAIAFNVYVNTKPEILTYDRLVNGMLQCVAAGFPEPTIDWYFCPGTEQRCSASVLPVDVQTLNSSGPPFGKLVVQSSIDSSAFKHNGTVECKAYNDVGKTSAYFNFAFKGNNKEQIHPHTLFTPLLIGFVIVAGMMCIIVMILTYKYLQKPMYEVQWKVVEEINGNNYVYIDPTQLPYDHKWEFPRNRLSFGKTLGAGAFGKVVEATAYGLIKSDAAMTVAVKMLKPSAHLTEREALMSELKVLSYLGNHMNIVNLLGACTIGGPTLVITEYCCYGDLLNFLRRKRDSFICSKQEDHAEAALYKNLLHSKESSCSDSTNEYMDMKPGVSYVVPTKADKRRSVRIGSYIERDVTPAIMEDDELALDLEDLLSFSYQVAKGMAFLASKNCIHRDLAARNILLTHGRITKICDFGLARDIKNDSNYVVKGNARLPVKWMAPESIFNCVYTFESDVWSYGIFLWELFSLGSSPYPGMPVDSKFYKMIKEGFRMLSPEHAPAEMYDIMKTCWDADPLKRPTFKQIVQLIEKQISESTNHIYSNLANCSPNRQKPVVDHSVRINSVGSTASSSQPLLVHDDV
Chain of Tyrosine-protein kinase BTK (Homo sapiens) (Q06187 whole entry, the tested form may be a part): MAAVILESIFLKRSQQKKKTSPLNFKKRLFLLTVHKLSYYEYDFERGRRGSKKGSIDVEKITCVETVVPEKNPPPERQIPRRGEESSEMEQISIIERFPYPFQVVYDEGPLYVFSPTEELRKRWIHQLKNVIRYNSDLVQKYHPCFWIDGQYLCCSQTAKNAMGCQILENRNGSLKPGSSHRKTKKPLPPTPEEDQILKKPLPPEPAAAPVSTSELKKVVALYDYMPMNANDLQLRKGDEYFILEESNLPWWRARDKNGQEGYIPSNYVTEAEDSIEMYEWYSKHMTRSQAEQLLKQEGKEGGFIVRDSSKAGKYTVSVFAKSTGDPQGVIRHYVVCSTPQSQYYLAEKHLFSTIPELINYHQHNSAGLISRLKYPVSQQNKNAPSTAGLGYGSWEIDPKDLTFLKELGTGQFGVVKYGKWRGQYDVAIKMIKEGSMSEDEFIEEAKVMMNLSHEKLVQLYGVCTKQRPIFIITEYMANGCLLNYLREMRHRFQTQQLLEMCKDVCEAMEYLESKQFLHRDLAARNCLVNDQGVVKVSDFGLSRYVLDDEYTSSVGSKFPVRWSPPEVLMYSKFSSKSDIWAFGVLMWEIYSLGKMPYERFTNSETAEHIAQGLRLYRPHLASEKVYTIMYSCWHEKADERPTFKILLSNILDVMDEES

- inhibition [1]: 48%
- inhibition [2]: 30%
SMILES: CCCNC(=O)c1c(C)[nH]c(/C=C2\C(=O)Nc3ccc(F)cc32)c1C

- inhibition [3]: 29%
- inhibition [4]: 64%
- inhibition [5]: 0%
- inhibition [6]: 19%
- inhibition [7]: 0%
- inhibition [8]: 14%
- inhibition [9]: 18%
- inhibition [10]: 41%
SMILES: CCN(CC)CCNC(=O)c1c(C)[nH]c(/C=C2\C(=O)Nc3ccc(CCC(N)=O)cc32)c1C
- inhibition [11]: 29.2%
- inhibition [12]: Active

SMILES: CCN(CC)CCCNC(=O)c1c(C)[nH]c(/C=C2\C(=O)Nc3ccc(F)cc32)c1C
- EC50 [13]: 18 µM
- cytotoxicity at 24 h, 50 µM [14]: 63%
- EC50 [15]: 13.5 µM

- inhibition [1]: 85%
- inhibition [2]: 78%
SMILES: Cc1[nH]c(/C=C2\C(=O)Nc3ccc(F)cc32)c(C)c1C(=O)O

- inhibition [1]: 90%
- inhibition [2]: 70%
SMILES: CCc1ccc2c(c1)NC(=O)/C2=C\c1[nH]c(C)c(C(=O)NCCN(CC)CC)c1C

SMILES: CCN(CC)CCNC(=O)c1c(C)[nH]c(/C=C2\C(=O)Nc3ccc(CCC#N)cc32)c1C
- EC50 [13]: 17.8 µM
- cytotoxicity at 24 h, 50 µM [14]: 64%
- EC50 [16]: 13.6 µM
- inhibition [11]: 34.1%
- EC50 [15]: 14.8 µM

- IC50 [17]: 0.4 µM
SMILES: CNC(=O)c1ccccc1Oc1nc(Nc2cc(OC)c(OC)c(OC)c2)ncc1Br

SMILES: Cc1[nH]c(/C=C2\C(=O)Nc3ccc(F)cc32)c(C)c1C(=O)NCCN(C)C
- cytotoxicity at 24 h, 50 µM [14]: 70%
- cytotoxicity at 24 h, 50 µM [18]: 98%
- EC50 [15]: 12.6 µM

SMILES: CCN(CC)CCNC(=O)c1c(C)[nH]c(/C=C2\C(=O)Nc3ccc(C#N)cc32)c1C
- EC50 [13]: 19.9 µM
- cytotoxicity at 24 h, 50 µM [14]: 75%
- EC50 [16]: 13.6 µM
- cytotoxicity at 72 h, 50 µM [19]: 98%

SMILES: CCN(CC)CCNC(=O)c1c(C)[nH]c(/C=C2\C(=O)Nc3cc(F)ccc32)c1C
- cytotoxicity at 24 h, 50 µM [14]: 61%
- EC50 [16]: 7.15 µM
- cytotoxicity at 24 h, 50 µM [18]: 98%
- EC50 [15]: 2.85 µM

- inhibition [1]: 69%
SMILES: CCN(CC)CCNC(=O)c1c(C)[nH]c(/C=C2\C(=O)Nc3cc(C(C)C)ccc32)c1C

SMILES: CCNCCNC(=O)c1c(C)[nH]c(/C=C2\C(=O)Nc3ccc(F)cc32)c1C
- EC50 [13]: 15.5 µM
- EC50 [16]: 11.9 µM
- EC50 [20]: 12.9 µM
- EC50 [15]: 13.6 µM

- inhibition [1]: 88%
SMILES: CCN(CC)CCNC(=O)c1c(C)[nH]c(/C=C2\C(=O)Nc3cc(C)ccc32)c1C

SMILES: CCN(CC)CCNC(=O)c1c(C)[nH]c(/C=C2\C(=O)Nc3ccc(CCN=[N+]=[N-])cc32)c1C
- EC50 [13]: 4.86 µM
- cytotoxicity at 24 h, 50 µM [14]: 90%
- EC50 [16]: 4.81 µM
- EC50 [15]: 3.83 µM

SMILES: CCN(CC)CCNC(=O)c1c(C)[nH]c(/C=C2\C(=O)Nc3ccc(CCNC(C)=O)cc32)c1C
- cytotoxicity at 48 h, 50 µM [21]: 42%
- cytotoxicity at 24 h, 50 µM [14]: 5%
- cytotoxicity at 24 h, 50 µM [18]: 98%
- cytotoxicity at 72 h, 50 µM [19]: 64%

SMILES: CCN(CC)CCNC(=O)c1c(C)[nH]c(/C=C2\C(=O)Nc3cc(Cl)ccc32)c1C
- EC50 [13]: 3.83 µM
- EC50 [16]: 4.18 µM
- cytotoxicity at 72 h, 1.56 µM [22]: 65%
- EC50 [20]: 5.24 µM

- inhibition [2]: 89%
SMILES: CCN(CC)CCNC(=O)c1c(C)[nH]c(/C=C2\C(=O)Nc3cc(Br)ccc32)c1C

- inhibition [1]: 17%
- inhibition [2]: 40%
SMILES: CCN(CC)CCNC(=O)c1c(C)[nH]c(/C=C2\C(=O)N(C)c3ccc(F)cc32)c1C
- EC50 [13]: 11.8 µM
- EC50 [20]: 12.1 µM
- EC50 [15]: 6.79 µM

SMILES: CCN(CC)CCNC(=O)c1c(C)[nH]c(/C=C2\C(=O)Nc3ccc(CCO)cc32)c1C
- inhibition [3]: 49%
- inhibition [4]: 35%
- inhibition [6]: 55%
- inhibition [7]: 28%
- inhibition [23]: Active
- inhibition [9]: 24%
- inhibition [10]: 54%
- inhibition [11]: 23.7%
- inhibition [24]: 42%
